ChEMBL document CHEMBL1649150, “P-glycoprotein-mediated transport of moxifloxacin in a Calu-3 lung epithelial cell model” (Antimicrob Agents Chemother, 2009)

What was measured:
[1] = Cmax in healthy human at 400 […]; format: ADME, organism-based; settings: in vivo
[2] = P-glycoprotein-mediated transport in human Calu3 cells assessed as efflux ratio of permeability from […] side at 50 uM; format: ADME, cell-based; settings: calu-3, 50 µM
[3] = tested on: P-glycoprotein; test: P-glycoprotein-mediated transport in human Calu3 cells expressing P-glycoprotein assessed as maximum apparent permeability from basolateral to apical side; format: ADME, cell-based, Calu-3
[4] = tested on: P-glycoprotein; test: (§1) P-glycoprotein-mediated transport in human Calu3 cells expressing P-glycoprotein assessed as maximum apparent permeability from basolateral to apical side at 50 uM; format: ADME, cell-based, Calu-3
[5] = as §1; format: ADME, cell-based, Calu-3; settings: calu-3, 50 µM, TDE = time-dependent effect
[6] = tested on: P-glycoprotein; test: P-glycoprotein-mediated transport in human Calu3 cells expressing P-glycoprotein assessed as minimum apparent permeability from basolateral to apical side; format: ADME, cell-based, Calu-3
[7] = tested on: P-glycoprotein; test: P-glycoprotein-mediated transport in human Calu3 cells expressing P-glycoprotein assessed as maximum apparent permeability from basolateral to apical side at 50 uM in presence of in presence of 10 uM of p-glycoprotein and MRP transport inducer rifampin; format: ADME, cell-based, Calu-3
[8] = tested on: P-glycoprotein; test: Activity at P-glycoprotein in human Calu3 cells; format: ADME, cell-based, Calu-3
[9] = tested on: P-glycoprotein; test: P-glycoprotein-mediated transport in human Calu3 cells expressing P-glycoprotein assessed as maximum apparent permeability from apical to basolateral side at 50 uM in presence of in presence of 10 uM of p-glycoprotein and MRP transport inducer rifampin; format: ADME, cell-based, Calu-3
[10] = tested on: P-glycoprotein; test: P-glycoprotein-mediated transport in human Calu3 cells expressing P-glycoprotein assessed as maximum apparent permeability from basolateral to apical side at 50 uM in presence of in presence of 25 uM of p-glycoprotein and MRP transport inducer rifampin; format: ADME, cell-based, Calu-3
[11] = Apparent passive permeability across human Calu3 cells at 350 ug/ml; format: ADME, cell-based, Calu-3
[12] = tested on: P-glycoprotein; test: P-glycoprotein-mediated transport in human Calu3 cells expressing P-glycoprotein assessed as maximum apparent permeability from apical to basolateral side at 50 uM in presence of in presence of 25 uM of p-glycoprotein and MRP transport inducer rifampin; format: ADME, cell-based, Calu-3
[13] = Apparent passive permeability across human Calu3 cells at < 10 ug/ml; format: ADME, cell-based, Calu-3
[14] = tested on: P-glycoprotein; test: (§2) P-glycoprotein-mediated transport in human Calu3 cells expressing P-glycoprotein assessed as maximum apparent permeability from apical to basolateral side at 50 uM; format: ADME, cell-based, Calu-3
[15] = as §2; format: ADME, cell-based, Calu-3; settings: calu-3, 50 µM, TDE = time-dependent effect

COc1c(N2C[C@@H]3CCCN[C@@H]3C2)c(F)cc2c(=O)c(C(=O)O)cn(C3CC3)c12 [MOXIFLOXACIN]
Cmax [1]: 5 µg/mL
Ratio [2]: 2
Papp B→A [3]: 136 nm/s
Papp B→A at 50 µM [4]: 105 nm/s
Papp [5]: tde
Papp B→A [6]: 79 nm/s
Papp B→A at 50 µM [7]: 119 nm/s
Km [8]: 64.6 µg/mL
Papp A→B at 50 µM [9]: 43.5 nm/s
Papp B→A at 50 µM [10]: 125 nm/s
Papp at 350 ug/ml [11]: 79 nm/s
Papp A→B at 50 µM [12]: 40.8 nm/s
Papp [13]: 136 nm/s
Papp A→B at 50 µM [14]: 52.5 nm/s
Papp [15]: tde
